From PMC8246065 (The EMBO Journal, 2021)

How the values were obtained:
NOD1∆CARD = target: T1, NOD1∆CARD (Homo sapiens, UniProt Q9Y239); assay: MST with cell lysates expressing NOD1 mutants; format: binding; conditions: Fig EV5D
T1 sequence (Q9Y239 196-953 limits assumed): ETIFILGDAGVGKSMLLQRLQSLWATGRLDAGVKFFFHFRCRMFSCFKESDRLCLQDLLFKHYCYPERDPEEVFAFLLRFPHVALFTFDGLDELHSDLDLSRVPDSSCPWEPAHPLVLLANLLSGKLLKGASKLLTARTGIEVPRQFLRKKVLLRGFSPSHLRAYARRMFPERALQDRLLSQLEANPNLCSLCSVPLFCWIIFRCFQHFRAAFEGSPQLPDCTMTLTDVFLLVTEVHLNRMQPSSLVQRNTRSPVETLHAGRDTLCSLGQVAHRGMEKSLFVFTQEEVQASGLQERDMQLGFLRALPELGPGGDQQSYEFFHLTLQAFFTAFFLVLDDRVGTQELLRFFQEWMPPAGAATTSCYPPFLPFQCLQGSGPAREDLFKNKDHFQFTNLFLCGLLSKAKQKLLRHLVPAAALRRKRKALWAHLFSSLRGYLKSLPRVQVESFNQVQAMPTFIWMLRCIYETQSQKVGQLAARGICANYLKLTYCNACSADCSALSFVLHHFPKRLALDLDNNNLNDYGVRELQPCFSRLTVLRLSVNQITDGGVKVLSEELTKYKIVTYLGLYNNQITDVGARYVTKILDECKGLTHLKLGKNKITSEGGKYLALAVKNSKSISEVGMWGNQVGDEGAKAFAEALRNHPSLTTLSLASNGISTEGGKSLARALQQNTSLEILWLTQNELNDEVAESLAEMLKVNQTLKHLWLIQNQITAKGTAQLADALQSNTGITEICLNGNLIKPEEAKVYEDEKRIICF
Protocol: Binding of NOD1, NOD2, GFP, or NLRP3‐GFP to different ligands was measured by microscale thermophoresis (MST). 20 nM GFP or GFP‐tagged proteins in MST buffer (PBS pH 7.4, containing 0.5% NP‐40 and 10 mM DTT) was incubated with different concentrations of ligands. Immediately, samples were loaded into standard glass capillaries (NanoTemper) and thermophoresis analysis was performed on a NanoTemper Monolith NT.115 instrument (40% LED, 80% MST power) at 22°C. A laser on‐time of 30 s and a laser off‐time of 5 s were used. The experiment was performed in triplicates, and the MST curves were fitted using NT analysis software to obtain the K d values.

NOD1/2 = assay: dSTORM imaging of HeLa NOD1 or NOD2 cells; format: cell-based, human; conditions: S1P 20 µM, 2 h
Protocol: For dSTORM, HeLa inducible NOD1‐GFP or NOD2‐GFP cells were grown on µ‐Slides with glass bottom (ibidi, Germany) and treated with doxycycline overnight to induce NOD1‐GFP or NOD2‐GFP expression. […] Then, cells were fixed with 4% (v:v) paraformaldehyde in PBS, pH 7.4 for 10 min at room temperature (RT). After washing twice with PBS, cells were incubated with 50 mM glycine in PBS, pH 7.4 for 10 min and permeabilized with 0.05% saponin (Sigma‐Aldrich, 47036), 1% BSA in PBS for 10 min. Rabbit anti‐GFP antibody (ChromoTek) and Alex Fluor 647‐conjugated goad anti‐rabbit antibody (Thermo Fisher Scientific) were diluted in PBS and incubated for 1 h at room temperature. The super resolution imaging was performed with Nanoimager S (Oxford Nanoimaging). For single particle tracking in live cells, Nanoimager S was pre‐warmed at 37°C. […] Medium was then replaced with fresh DMEM without phenol red. Live imaging was performed with Nanoimager S at acquisition speed of 100fps.

NOD1 and NOD2 = assay: Immunoprecipitation with lipid-coated beads; format: binding, human; conditions: HeLa NOD1-GFP / NOD2-GFP lysates, room temperature 2 h
Protocol: HeLa NOD1 or NOD2 cells were grown overnight and afterward treated with doxycycline overnight to induce NOD1 or NOD2 expression. Cells of one 10‐cm dish were lysed with 500 µl of lysis buffer (25 mM Tris–HCl, pH 7.5, 150 mM NaCl, 1 mM EDTA, 1% NP‐40, and 5% glycerol) supplemented with protease inhibitors (Roche, 05892791001) on ice for 20 min. Lysates were centrifuged at 16,000 × g at 4°C for 10 min, and supernatants were mixed with GFP‐Trap agarose (ChromoTek GmbH, gta‐20) overnight at 4°C. Afterward, agaroses were washed twice with PBS and boiled with sample buffer for SDS–PAGE. For lipid‐coated beads IP, lipid‐coated beads were incubated with supernatants for 2 h at room temperature and then washed with lysis buffer for three times and boiled with sample buffer for SDS–PAGE.

HeLa NOD1 or NOD2 cells = assay: Western blot analysis in HeLa NOD1 or NOD2 cells; format: cell-based, human
Protocol: Cells were lysed in RIPA buffer supplemented with protease inhibitor cocktail and PhosSTOP (Roche, 4906837001) on ice for 10 min. After centrifugation at 16,000 × g for 10 min, supernatants were heated with SDS sample buffer at 95°C for 10 min. Proteins were separated on 4–15% SDS gels (Bio‐Rad, 4561086) and transferred onto nitrocellulose membranes. The membranes were incubated with primary antibodies at 4°C overnight and secondary antibodies at RT for 1 h, respectively. All antibodies were diluted in PBS supplemented with 0.1% Tween‐20 (Sigma‐Aldrich, P1379) and 5% BSA. Membranes were developed with ECL detection Kit (Thermo Fisher Scientific, 34094) and exposed with ChemiDoc (Bio‐Rad). The antibody against ACTB/β‐actin was used as loading control.

[1] = test system: HeLa inducible NOD1 or NOD2 cells; assay: ELISA of IL6/IL8 in supernatants of HeLa inducible NOD1 or NOD2 cells; format: cell-based, human
Protocol: To differentiate THP‐1 into macrophage‐like cells, THP‐1 cells were stimulated with 50 ng/ml phorbol 12‐myristate 13‐acetate (Sigma‐Aldrich, P8139) for 24 h and then incubated with fresh medium for another 48 h. […] To induce NOD1 or NOD2 expression, HeLa NOD1 or NOD2 cells were treated with 0.5 µg/ml or 0.25 µg/ml doxycycline for at least 16 h, respectively. All cells have been checked for mycoplasma contamination regularly. Bone marrow‐derived macrophages (BMDMs) were obtained from tibial and femural bones and generated with DMEM containing 20% L929 cell supernatant, 10% FBS, 5% heat‐inactivated horse serum, 1 mM sodium pyruvate, and 2 mM L‐glutamine. For BMDM stimulation experiments, BMDMs were treated with IFN‐γ (20 ng/ml) overnight before stimulation.

`CCCCCCCCCCCCC/C=C/[C@@H](O)[C@@H](N)COP(=O)(O)O` [S1P, sphingosine‐1‐phosphate] was tested, and the “Interaction with NOD1∆CARD by MST” value (NOD1∆CARD) was “still interacted”, the “Oligomerization of NOD1/2” value (NOD1/2) was “oligomerization of NOD1/2 induced” and the “Immunoprecipitation of NOD1 and NOD2 with lipid-coated beads” value (NOD1 and NOD2) was “specifically immunoprecipitated”. The “NOD1 or NOD2 degradation” value (HeLa NOD1 or NOD2 cells; 20 µM with digitonin, Fig EV4G) was “did not induce NOD1 or NOD2 degradation”, the “MAPK activation and NF-κB activation” value (HeLa NOD1 or NOD2 cells; cytosolic S1P 20 µM) was “triggered MAPK activation and NF‐κB activation” and the “IL6 production compared to iE-DAP or MDP at the same concentration” value ([1]; 0.5, 5 or 20 µM with digitonin (5 µg/ml), Fig EV4E,F) was “higher IL6 production”. The “IL6 production on co-stimulation vs single stimulation” value ([1]; S1P (2 µM) with iE-DAP or MDP (3, 20, 50 µM), digitonin, 20 h) was “significantly higher IL6 production”, the “IL6 or IL8 production” value ([1]; cytosolic delivery with digitonin (5 µg/ml), 20 h) was “induced abundant IL6 or IL8 production” and the “IL6 or IL8 production” value ([1]; extracellular stimulation (absence of digitonin), S1P 10 µM) was “did not induce marked IL6 or IL8 production”.
